Data taken from article PMC9270327 (Communications Biology, 2022).
Like-named read-outs stand apart in the source and are kept apart here.

Tests used:
[1] = system: SARS-CoV-2 Wuhan-Hu-1, Caco-2 cells; format: cell-based; details: for SARS-CoV-2 infection, Mean (0 nM = 100): Fig. 6a, Wuhan-Hu-1
[2] = target: T1, recombinant human matriptase (Homo sapiens, UniProt Q9Y5Y6); test: Enzyme inhibition assay with purified matriptase (Ki, dose-response); format: biochemical; details: for matriptase activity, Mean (Fig. 2b): normalized, 0 nM = 100
T1 construct: purchased R&D Systems (Minneapolis, MN, USA)
T1 sequence (Q9Y5Y6 1-855): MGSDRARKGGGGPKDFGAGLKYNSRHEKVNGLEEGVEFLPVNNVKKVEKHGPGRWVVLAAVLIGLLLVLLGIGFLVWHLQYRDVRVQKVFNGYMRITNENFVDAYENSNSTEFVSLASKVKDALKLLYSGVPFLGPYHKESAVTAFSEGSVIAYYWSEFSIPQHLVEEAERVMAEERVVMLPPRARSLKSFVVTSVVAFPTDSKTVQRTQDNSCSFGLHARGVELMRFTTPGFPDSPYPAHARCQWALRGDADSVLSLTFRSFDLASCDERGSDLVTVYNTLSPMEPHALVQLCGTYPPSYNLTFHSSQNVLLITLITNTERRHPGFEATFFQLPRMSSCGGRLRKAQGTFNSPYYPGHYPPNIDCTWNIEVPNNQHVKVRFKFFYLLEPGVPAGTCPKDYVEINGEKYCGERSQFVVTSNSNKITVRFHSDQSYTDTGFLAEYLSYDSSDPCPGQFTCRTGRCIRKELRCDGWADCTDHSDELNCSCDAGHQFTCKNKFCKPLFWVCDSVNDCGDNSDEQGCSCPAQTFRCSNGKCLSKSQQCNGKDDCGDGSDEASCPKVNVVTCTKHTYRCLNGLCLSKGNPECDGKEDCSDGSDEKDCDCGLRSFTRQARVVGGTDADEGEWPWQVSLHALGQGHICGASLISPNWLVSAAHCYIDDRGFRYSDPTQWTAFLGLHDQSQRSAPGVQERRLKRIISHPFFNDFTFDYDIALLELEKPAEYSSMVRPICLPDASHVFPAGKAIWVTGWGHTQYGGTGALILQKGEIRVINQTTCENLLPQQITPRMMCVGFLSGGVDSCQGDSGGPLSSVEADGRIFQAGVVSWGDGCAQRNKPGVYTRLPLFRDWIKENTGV

[3] = system: lentiviral pseudoparticles carrying SARS-CoV-2 Beta (B.1.351) spike, Caco-2 cells; format: cell-based; details: for SARS-CoV-2 spike driven entry, Mean (0 nM = 100): Fig. 5c
[4] = target: T2, factor Xa (Homo sapiens, UniProt P00742); test: Enzyme inhibition assay with purified factor Xa (Ki, dose-response); format: biochemical; details: for factor Xa activity, Mean (Fig. 2d): normalized, 0 nM = 100
T2 construct: purchased Bio-Techne GmbH (Wiesbaden, Germany)
Description: Recombinant human TMPRSS2 was purchased from Creative BioMart (New York, USA) or LSBio (Seattle, USA), factor Xa was obtained from Bio-Techne GmbH (Wiesbaden, Germany). Recombinant human thrombin and matriptase protein were purchased from R&D Systems (Minneapolis, MN, USA).

[5] = target: TMPRSS2 (Homo sapiens, UniProt O15393); test: Cell culture medium stability: residual TMPRSS2 inhibition after incubation in medium
TMPRSS2, sequence (O15393 whole entry): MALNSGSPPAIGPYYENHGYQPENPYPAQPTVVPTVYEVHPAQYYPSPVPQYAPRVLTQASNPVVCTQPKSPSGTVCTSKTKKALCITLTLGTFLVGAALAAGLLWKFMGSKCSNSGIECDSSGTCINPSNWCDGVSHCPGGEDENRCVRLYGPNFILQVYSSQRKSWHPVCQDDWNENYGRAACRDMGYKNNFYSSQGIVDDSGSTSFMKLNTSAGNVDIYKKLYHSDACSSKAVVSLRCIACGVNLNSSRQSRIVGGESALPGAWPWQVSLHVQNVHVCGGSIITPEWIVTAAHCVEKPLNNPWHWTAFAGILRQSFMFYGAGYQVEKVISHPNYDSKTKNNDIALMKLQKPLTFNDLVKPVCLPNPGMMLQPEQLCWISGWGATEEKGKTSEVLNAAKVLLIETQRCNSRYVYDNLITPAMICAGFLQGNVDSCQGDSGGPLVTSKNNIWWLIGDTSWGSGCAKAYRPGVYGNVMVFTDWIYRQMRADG
Description: The activity of the compounds against the recombinant human enzymes was determined in enzyme inhibition assays. […] The measurements were performed on a Tecan infinite® M1000 and the fluorescence intensity was measured by exciting the AMC fluorophore at 380 nm wavelength and recording emission at 460 nm wavelength. […] Fluorescence intensities and absorption were measured every 2 min for 2 h or as endpoint after 2 h. […] To determine the IC50 values, the concentration-response data were plotted with the program GraphPad prism version 8.4.2 (San Diego, California) and a nonlinear regression fit with the equation [Inhibitor] vs. normalized response was applied. The inhibitory constant Ki was calculated from the IC50 values using the Cheng–Prusoff equation (Ki = IC50/[S]/KM) for competitive reversible inhibitors[66].
The stability of the inhibitors was measured according to a modified procedure from ref. [67]. […] At indicated timepoints, 100 µL samples were taken and mixed with 200 µL of ethanol to precipitate proteins. […] The supernatant was aspirated and analyzed using analytical HPLC. The residual inhibitory constants Ki after incubation was assessed by mixing serial dilutions of the inhibitor with recombinant TMPRSS2 as described above.
were mixed with recombinant TMPRSS2, followed by the addition of the fluorogenic reference
Shown are the means ± SD of n=1 experiment performed in triplicates.

T2 sequence (P00742 235-488 limits assumed): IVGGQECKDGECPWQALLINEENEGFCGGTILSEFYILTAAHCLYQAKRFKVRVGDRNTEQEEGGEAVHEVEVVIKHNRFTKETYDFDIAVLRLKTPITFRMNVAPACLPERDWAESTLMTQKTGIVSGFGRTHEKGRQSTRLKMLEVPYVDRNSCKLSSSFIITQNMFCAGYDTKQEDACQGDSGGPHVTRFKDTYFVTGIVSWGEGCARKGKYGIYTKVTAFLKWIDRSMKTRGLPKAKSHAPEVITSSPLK
T2 sequence (P00742 41-179 partner limits assumed): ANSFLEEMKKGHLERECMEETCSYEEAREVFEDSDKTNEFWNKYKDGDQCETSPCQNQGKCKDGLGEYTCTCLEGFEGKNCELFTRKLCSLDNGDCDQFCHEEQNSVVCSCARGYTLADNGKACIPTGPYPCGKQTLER

## ace-Arg-Pro-Arg-kbt [Compound 2]
[1]; compound 32 nM
  SARS-CoV-2 infection, Mean (0 nM = 100): 97.173
[1]; compound 160 nM
  SARS-CoV-2 infection, Mean (0 nM = 100): 99.3408
[1]; compound 800 nM
  SARS-CoV-2 infection, Mean (0 nM = 100): 95.9056
[1]; compound 4000 nM
  SARS-CoV-2 infection, Mean (0 nM = 100): 58.4381
[1]; compound 20000 nM
  SARS-CoV-2 infection, Mean (0 nM = 100): 1.12
[1]; compound 100000 nM
  SARS-CoV-2 infection, Mean (0 nM = 100): -2.857
[1]; read-out: IC50 SARS-CoV-2 Wuhan-Hu-1
  IC50: 4570 nM
[1]; read-out: IC50 SARS-CoV-2 Wuhan-Hu-1 (text)
  IC50: 4600 nM
[2]; 0.1 nM
  matriptase activity, Mean (Fig. 2b): 101.198
[2]; 0.2 nM
  matriptase activity, Mean (Fig. 2b): 106.445
[2]; 1 nM
  matriptase activity, Mean (Fig. 2b): 70.3881
[2]; 10 nM
  matriptase activity, Mean (Fig. 2b): 45.9032
[2]; 100 nM
  matriptase activity, Mean (Fig. 2b): 8.529
[2]; 1000 nM
  matriptase activity, Mean (Fig. 2b): 0.7667
[2]; 50000 nM
  matriptase activity, Mean (Fig. 2b): -0.2875
[2]; 500000 nM
  matriptase activity, Mean (Fig. 2b): -0.6229
[2]; 30 min preincubation, substrate Boc-Gln-Ala-Arg-AMC
  Ki: 3.3 nM
[2]; quotient Ki matriptase / Ki TMPRSS2
  Selectivity index Matriptase: 0.9
[3]; Caco-2 cells, luciferase 2 days post transduction, read-out: IC50 pseudotyped lentivirus Beta
  IC50: 434 nM
[3]; compound 3.2 nM
  SARS-CoV-2 spike driven entry, Mean (0 nM = 100): 86.789
[3]; compound 16 nM
  SARS-CoV-2 spike driven entry, Mean (0 nM = 100): 76.3745
[3]; compound 80 nM
  SARS-CoV-2 spike driven entry, Mean (0 nM = 100): 81.347
[3]; compound 400 nM
  SARS-CoV-2 spike driven entry, Mean (0 nM = 100): 58.1085
[3]; compound 2000 nM
  SARS-CoV-2 spike driven entry, Mean (0 nM = 100): 24.7225
[3]; compound 10000 nM
  SARS-CoV-2 spike driven entry, Mean (0 nM = 100): 3.543
[3]; compound 50000 nM
  SARS-CoV-2 spike driven entry, Mean (0 nM = 100): 0.923
[4]; 0.02 nM
  factor Xa activity, Mean (Fig. 2d): 109.27
[4]; 0.04 nM
  factor Xa activity, Mean (Fig. 2d): 100.653
[4]; 0.2 nM
  factor Xa activity, Mean (Fig. 2d): 101.827
[4]; 2 nM
  factor Xa activity, Mean (Fig. 2d): 97.7797
[4]; 20 nM
  factor Xa activity, Mean (Fig. 2d): 88.6416
[4]; 200 nM
  factor Xa activity, Mean (Fig. 2d): 49.7393
[4]; 10000 nM
  factor Xa activity, Mean (Fig. 2d): 7.702
[4]; 100000 nM
  factor Xa activity, Mean (Fig. 2d): 2.742
[4]; 30 min preincubation, substrate Bz-Ile-Glu-Gly-Arg-pNA
  Ki: 107 nM
[4]; quotient Ki factor Xa / Ki TMPRSS2
  Selectivity index Factor Xa: 28.1
[5]; inhibitor 0.0167 nM, 0 min in cell culture medium
  Residual TMPRSS2 activity, Mean (0 nM = 100): 98.9717
[5]; inhibitor 0.0167 nM, 30 min in cell culture medium
  Residual TMPRSS2 activity, Mean (0 nM = 100): 101.323
[5]; inhibitor 0.0167 nM, 60 min in cell culture medium
  Residual TMPRSS2 activity, Mean (0 nM = 100): 96.8723
[5]; inhibitor 0.0167 nM, 120 min in cell culture medium
  Residual TMPRSS2 activity, Mean (0 nM = 100): 98.5343
[5]; inhibitor 0.0167 nM, 24 h in cell culture medium
  Residual TMPRSS2 activity, Mean (0 nM = 100): 98.1961
[5]; inhibitor 0.0167 nM, 10 d in cell culture medium
  Residual TMPRSS2 activity, Mean (0 nM = 100): 98.4437
[5]; inhibitor 0.0167 nM, positive ctrl
  Residual TMPRSS2 activity, Mean (0 nM = 100): 97.6368
[5]; inhibitor 0.167 nM, 0 min in cell culture medium
  Residual TMPRSS2 activity, Mean (0 nM = 100): 100.63
[5]; inhibitor 0.167 nM, 30 min in cell culture medium
  Residual TMPRSS2 activity, Mean (0 nM = 100): 100.761
[5]; inhibitor 0.167 nM, 60 min in cell culture medium
  Residual TMPRSS2 activity, Mean (0 nM = 100): 103.84
[5]; inhibitor 0.167 nM, 120 min in cell culture medium
  Residual TMPRSS2 activity, Mean (0 nM = 100): 96.4654
[5]; inhibitor 0.167 nM, 24 h in cell culture medium
  Residual TMPRSS2 activity, Mean (0 nM = 100): 97.7945
[5]; inhibitor 0.167 nM, 10 d in cell culture medium
  Residual TMPRSS2 activity, Mean (0 nM = 100): 101.036
[5]; inhibitor 0.167 nM, positive ctrl
  Residual TMPRSS2 activity, Mean (0 nM = 100): 98.5654
[5]; inhibitor 1.665 nM, 0 min in cell culture medium
  Residual TMPRSS2 activity, Mean (0 nM = 100): 97.2536
[5]; inhibitor 1.665 nM, 30 min in cell culture medium
  Residual TMPRSS2 activity, Mean (0 nM = 100): 96.1305
[5]; inhibitor 1.665 nM, 60 min in cell culture medium
  Residual TMPRSS2 activity, Mean (0 nM = 100): 95.956
[5]; inhibitor 1.665 nM, 120 min in cell culture medium
  Residual TMPRSS2 activity, Mean (0 nM = 100): 95.462
[5]; inhibitor 1.665 nM, 24 h in cell culture medium
  Residual TMPRSS2 activity, Mean (0 nM = 100): 97.8646
[5]; inhibitor 1.665 nM, 10 d in cell culture medium
  Residual TMPRSS2 activity, Mean (0 nM = 100): 97.0442
[5]; inhibitor 1.665 nM, positive ctrl
  Residual TMPRSS2 activity, Mean (0 nM = 100): 88.6541
[5]; inhibitor 16.65 nM, 0 min in cell culture medium
  Residual TMPRSS2 activity, Mean (0 nM = 100): 83.5545
[5]; inhibitor 16.65 nM, 30 min in cell culture medium
  Residual TMPRSS2 activity, Mean (0 nM = 100): 80.8705
[5]; inhibitor 16.65 nM, 60 min in cell culture medium
  Residual TMPRSS2 activity, Mean (0 nM = 100): 72.3193
[5]; inhibitor 16.65 nM, 120 min in cell culture medium
  Residual TMPRSS2 activity, Mean (0 nM = 100): 83.5842
[5]; inhibitor 16.65 nM, 24 h in cell culture medium
  Residual TMPRSS2 activity, Mean (0 nM = 100): 87.4426
[5]; inhibitor 16.65 nM, 10 d in cell culture medium
  Residual TMPRSS2 activity, Mean (0 nM = 100): 88.0057
[5]; inhibitor 16.65 nM, positive ctrl
  Residual TMPRSS2 activity, Mean (0 nM = 100): 59.7774
[5]; inhibitor 166.5 nM, 0 min in cell culture medium
  Residual TMPRSS2 activity, Mean (0 nM = 100): 18.9266
[5]; inhibitor 166.5 nM, 30 min in cell culture medium
  Residual TMPRSS2 activity, Mean (0 nM = 100): 17.6545
[5]; inhibitor 166.5 nM, 60 min in cell culture medium
  Residual TMPRSS2 activity, Mean (0 nM = 100): 24.0301
[5]; inhibitor 166.5 nM, 120 min in cell culture medium
  Residual TMPRSS2 activity, Mean (0 nM = 100): 22.2899
[5]; inhibitor 166.5 nM, 24 h in cell culture medium
  Residual TMPRSS2 activity, Mean (0 nM = 100): 22.0487
[5]; inhibitor 166.5 nM, 10 d in cell culture medium
  Residual TMPRSS2 activity, Mean (0 nM = 100): 39.6688
[5]; inhibitor 166.5 nM, positive ctrl
  Residual TMPRSS2 activity, Mean (0 nM = 100): 18.9416
[5]; inhibitor 1665 nM, 0 min in cell culture medium
  Residual TMPRSS2 activity, Mean (0 nM = 100): -1.499
[5]; inhibitor 1665 nM, 30 min in cell culture medium
  Residual TMPRSS2 activity, Mean (0 nM = 100): 5.536
[5]; inhibitor 1665 nM, 60 min in cell culture medium
  Residual TMPRSS2 activity, Mean (0 nM = 100): 0.2889
[5]; inhibitor 1665 nM, 120 min in cell culture medium
  Residual TMPRSS2 activity, Mean (0 nM = 100): -1.86
[5]; inhibitor 1665 nM, 24 h in cell culture medium
  Residual TMPRSS2 activity, Mean (0 nM = 100): -0.886
[5]; inhibitor 1665 nM, 10 d in cell culture medium
  Residual TMPRSS2 activity, Mean (0 nM = 100): 10.1282
[5]; inhibitor 1665 nM, positive ctrl
  Residual TMPRSS2 activity, Mean (0 nM = 100): 0.02381
